{"source": "the NIST ThermoML archive (doi:10.1016/j.fluid.2008.06.011)", "assay": "excess molar enthalpy (molar enthalpy of mixing); xn = mol fraction of the nth substance listed", "conditions": "298.15 K, 101 kPa, Liquid, Calvet calorimetry", "note": "Numbers after ± are expanded uncertainties."}
{"smiles": "CCCCCCCCCC", "note": "[decane] + CCCO", "values": [{"measurement": "excess molar enthalpy", "setting": "x2 = 0.1544", "result": "0.158 ± 0.00335", "unit": "kcal/mol"}, {"measurement": "excess molar enthalpy", "setting": "x2 = 0.1615", "result": "0.162 ± 0.00359", "unit": "kcal/mol"}, {"measurement": "excess molar enthalpy", "setting": "x2 = 0.2718", "result": "0.184 ± 0.00406", "unit": "kcal/mol"}, {"measurement": "excess molar enthalpy", "setting": "x2 = 0.3642", "result": "0.189 ± 0.00406", "unit": "kcal/mol"}, {"measurement": "excess molar enthalpy", "setting": "x2 = 0.4594", "result": "0.188 ± 0.00406", "unit": "kcal/mol"}, {"measurement": "excess molar enthalpy", "setting": "x2 = 0.5576", "result": "0.176 ± 0.00382", "unit": "kcal/mol"}, {"measurement": "excess molar enthalpy", "setting": "x2 = 0.6121", "result": "0.165 ± 0.00359", "unit": "kcal/mol"}, {"measurement": "excess molar enthalpy", "setting": "x2 = 0.6669", "result": "0.151 ± 0.00335", "unit": "kcal/mol"}, {"measurement": "excess molar enthalpy", "setting": "x2 = 0.7249", "result": "0.136 ± 0.00287", "unit": "kcal/mol"}, {"measurement": "excess molar enthalpy", "setting": "x2 = 0.7574", "result": "0.125 ± 0.00263", "unit": "kcal/mol"}, {"measurement": "excess molar enthalpy", "setting": "x2 = 0.7667", "result": "0.123 ± 0.00263", "unit": "kcal/mol"}, {"measurement": "excess molar enthalpy", "setting": "x2 = 0.8113", "result": "0.107 ± 0.00239", "unit": "kcal/mol"}, {"measurement": "excess molar enthalpy", "setting": "x2 = 0.8517", "result": "0.0894 ± 0.00191", "unit": "kcal/mol"}, {"measurement": "excess molar enthalpy", "setting": "x2 = 0.885", "result": "0.0741 ± 0.00167", "unit": "kcal/mol"}, {"measurement": "excess molar enthalpy", "setting": "x2 = 0.9219", "result": "0.0535 ± 0.0012", "unit": "kcal/mol"}, {"measurement": "excess molar enthalpy", "setting": "x2 = 0.9602", "result": "0.0292 ± 0.000717", "unit": "kcal/mol"}, {"measurement": "excess molar enthalpy", "setting": "x2 = 0.9832", "result": "0.0103 ± 0.000478", "unit": "kcal/mol"}]}
